# “And” between values parts separate entries of the source, which are not always exact repeats. Equal entries are not always repeated. Marks after values point to notes of the source that are not given here. Non-standard residues stand in square brackets, D forms with d. Residues, ends and D or L forms follow the SMILES beside them. *: point of attachment. Asu = N[C@@H](CCCCCC(=O)O)C(=O)O; NHOH = ON*
# Key:
# HDAC3/NCoR2 [1] = target: T1, HDAC3/NCoR2 (Homo sapiens, UniProt O15379); experiment: HDAC inhibition assay (fluorogenic, Ac-Leu-Gly-Lys(Ac)-AMC); format: biochemical; conditions: for HDAC3 dose-response data (relative enzyme activity), Fig. 6 + S. Fig. 10: duplicate columns
# T1 construct: HDAC3/NCoR2 (full length, C-terminal His tag, NCoR2 N-terminal GST tag); purchased BPS Bioscience 50003
# T1 sequence (O15379 whole entry): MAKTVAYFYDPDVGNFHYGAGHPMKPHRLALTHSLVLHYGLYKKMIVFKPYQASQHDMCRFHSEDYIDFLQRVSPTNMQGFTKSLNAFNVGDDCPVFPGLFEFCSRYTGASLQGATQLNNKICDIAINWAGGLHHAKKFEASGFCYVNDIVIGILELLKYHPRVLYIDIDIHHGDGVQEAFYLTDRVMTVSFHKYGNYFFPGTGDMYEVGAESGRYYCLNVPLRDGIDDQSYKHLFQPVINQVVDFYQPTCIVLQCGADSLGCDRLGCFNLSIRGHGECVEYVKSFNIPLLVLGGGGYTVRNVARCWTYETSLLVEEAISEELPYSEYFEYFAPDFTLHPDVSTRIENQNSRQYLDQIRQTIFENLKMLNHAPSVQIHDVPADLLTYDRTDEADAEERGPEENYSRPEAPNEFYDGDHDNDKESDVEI
# T1 sequence (Q9Y618 389-480 partner limits assumed): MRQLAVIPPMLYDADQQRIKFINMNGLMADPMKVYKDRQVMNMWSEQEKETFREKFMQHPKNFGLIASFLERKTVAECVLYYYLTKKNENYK
# HDAC8 = target: T2, HDAC8 (Homo sapiens, UniProt Q9BY41); experiment: HDAC inhibition assay (fluorogenic, Ac-Leu-Gly-Lys(Tfa)-AMC); format: biochemical; conditions: for HDAC8 dose-response data (relative enzyme activity, replicate values), Fig. 6 + S. Fig. 10: two replicate columns per inhibitor; for HDAC8 dose-response data (relative enzyme activity), Fig. 6 + S. Fig. 10: duplicate columns
# T2 construct: HDAC8 (full length, C-terminal His tag, BPS Bioscience, cat. #: 50008); purchased BPS Bioscience 50008
# T2 sequence (Q9BY41 1-377): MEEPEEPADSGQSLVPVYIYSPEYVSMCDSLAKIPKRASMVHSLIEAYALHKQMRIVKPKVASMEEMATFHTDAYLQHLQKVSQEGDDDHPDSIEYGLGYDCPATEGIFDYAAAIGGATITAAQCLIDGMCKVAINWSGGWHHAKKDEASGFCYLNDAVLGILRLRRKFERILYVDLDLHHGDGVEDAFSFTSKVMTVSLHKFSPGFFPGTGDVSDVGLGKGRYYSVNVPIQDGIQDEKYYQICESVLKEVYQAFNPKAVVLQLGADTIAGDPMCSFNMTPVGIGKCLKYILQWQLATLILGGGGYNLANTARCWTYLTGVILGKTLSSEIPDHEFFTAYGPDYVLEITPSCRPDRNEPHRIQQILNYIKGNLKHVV
# HDAC3/NCoR2 [2] = target: T1, HDAC3/NCoR2; experiment: Recombinant HDAC µSPOT microarray binding assay;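 also: peptide spots on cellulose slides incubated with rising HDAC enzyme concentrations, imaged together, four-parameter logistic fit, EC50 is enzyme concentration giving half-maximal binding signal, two experiments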
# HDAC6 = target: T3, HDAC6 (Homo sapiens, UniProt Q9UBN7); experiment: HDAC inhibition assay (fluorogenic, Ac-Leu-Gly-Lys(Ac)-AMC); format: biochemical; conditions: HDAC6, replicates
# T3 construct: HDAC6 (full length, BPS Bioscience, cat. #: 50056); purchased BPS Bioscience 50056
# T3 sequence (Q9UBN7 1-1215): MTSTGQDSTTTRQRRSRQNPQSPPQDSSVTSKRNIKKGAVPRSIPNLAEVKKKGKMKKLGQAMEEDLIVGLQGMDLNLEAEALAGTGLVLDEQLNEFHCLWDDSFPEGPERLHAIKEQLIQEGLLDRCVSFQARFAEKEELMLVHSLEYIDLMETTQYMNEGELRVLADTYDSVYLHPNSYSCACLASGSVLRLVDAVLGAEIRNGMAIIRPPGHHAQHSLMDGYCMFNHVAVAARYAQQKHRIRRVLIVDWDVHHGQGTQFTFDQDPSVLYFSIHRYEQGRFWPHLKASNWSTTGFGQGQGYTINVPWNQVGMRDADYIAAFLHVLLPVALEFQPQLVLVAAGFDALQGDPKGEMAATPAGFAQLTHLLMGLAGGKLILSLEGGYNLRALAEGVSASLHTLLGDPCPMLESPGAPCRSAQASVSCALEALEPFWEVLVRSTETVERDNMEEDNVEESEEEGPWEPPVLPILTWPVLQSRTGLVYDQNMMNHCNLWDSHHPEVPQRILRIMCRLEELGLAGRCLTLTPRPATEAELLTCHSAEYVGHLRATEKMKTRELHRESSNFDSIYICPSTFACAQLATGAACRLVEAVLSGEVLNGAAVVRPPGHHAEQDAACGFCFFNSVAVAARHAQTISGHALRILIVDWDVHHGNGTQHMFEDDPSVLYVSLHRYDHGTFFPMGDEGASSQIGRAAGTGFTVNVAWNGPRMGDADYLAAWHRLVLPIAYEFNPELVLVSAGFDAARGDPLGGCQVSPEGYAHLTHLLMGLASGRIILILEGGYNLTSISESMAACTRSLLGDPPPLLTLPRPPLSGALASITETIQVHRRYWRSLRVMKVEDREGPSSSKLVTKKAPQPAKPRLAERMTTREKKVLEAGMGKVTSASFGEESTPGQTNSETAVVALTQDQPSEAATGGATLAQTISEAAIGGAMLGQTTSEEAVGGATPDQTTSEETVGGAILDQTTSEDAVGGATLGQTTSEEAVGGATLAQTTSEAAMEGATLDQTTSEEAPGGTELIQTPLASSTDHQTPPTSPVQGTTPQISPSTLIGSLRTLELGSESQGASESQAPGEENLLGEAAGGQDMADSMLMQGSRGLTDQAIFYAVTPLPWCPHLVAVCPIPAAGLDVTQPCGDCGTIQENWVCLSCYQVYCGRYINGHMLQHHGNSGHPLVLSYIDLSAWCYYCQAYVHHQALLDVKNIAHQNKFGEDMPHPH
# [3] = resynthesized peptides, from Ki
compound,measurement,setting,value
CC[C@H](C)[C@H](NC(=O)[C@@H](NC(=O)[C@H](CO)NC(=O)[C@H](CCCNC(=N)N)NC(=O)[C@H](CCCCCC(=O)NO)NC(=O)[C@H](CC(N)=O)NC(=O)[C@H](Cc1ccc(O)cc1)NC(=O)[C@H](Cc1c[nH]cn1)NC(=O)[C@H](C)NC(=O)[C@H](CC(C)C)NC(=O)[C@H](CCCNC(=N)N)NC(=O)[C@H](CO)NC(=O)[C@H](C)NC(=O)[C@H](CCC(=O)O)NC(C)=O)[C@@H](C)O)C(=O)N[C@H](C(=O)N[C@@H](CO)C(=O)N[C@@H](Cc1c[nH]c2ccccc12)C(N)=O)[C@@H](C)O [11a] (Ac-EASRLAHYN[Asu](NHOH)RSTITSW-NH2),"HDAC3 dose-response data (relative enzyme activity), Fig. 6 + S. Fig. 10",HDAC3/NCoR2 [1]; log[inhibitor(M)] -9.89279,95.3177 and 97.0902
same,"HDAC3 dose-response data (relative enzyme activity), Fig. 6 + S. Fig. 10","HDAC3/NCoR2 [1]; log[inhibitor(M)] -10,5850266520292*, whole line marked with asterisks","96,0565351* and 98,690933*"
same,selectivity for HDAC3 vs. HDAC8,HDAC3/NCoR2 [1]; [3],63 fold and > 60 fold
same,selectivity for HDAC3 vs. HDACs 1 and 2,HDAC3/NCoR2 [1]; [3],4 fold and ~ 4 fold
same,Ki,HDAC8,216 ± 1 nM
same,"HDAC8 dose-response data (relative enzyme activity, replicate values), Fig. 6 + S. Fig. 10",HDAC8; Inhibitor conc [M] -8.49485 (log),96.1111 and 96.5276
same,"HDAC8 dose-response data (relative enzyme activity, replicate values), Fig. 6 + S. Fig. 10",HDAC8; Inhibitor conc [M] -9.19382 (log),96.7641 and 98.5453
same,"HDAC8 dose-response data (relative enzyme activity, replicate values), Fig. 6 + S. Fig. 10",HDAC8; Inhibitor conc [M] given as -7.09691 (log),74.7826 and 76.7416
same,"HDAC8 dose-response data (relative enzyme activity, replicate values), Fig. 6 + S. Fig. 10",HDAC8; Inhibitor conc [M] given as -7.79588 (log),92.4501 and 93.9678
same,"HDAC8 dose-response data (relative enzyme activity, replicate values), Fig. 6 + S. Fig. 10",HDAC8; Inhibitor conc [M] given as -9.89279 (log),96.0276 and 96.961
same,"HDAC8 dose-response data (relative enzyme activity, replicate values), Fig. 6 + S. Fig. 10",HDAC8; Inhibitor conc [M] given as -10.585 (log),"97,4443859* and 98,1506198*"
same,"HDAC8 dose-response data (relative enzyme activity), Fig. 6 + S. Fig. 10",HDAC8; Inhibitor conc [M] -4.30103,1.735 and 1.62
same,"HDAC8 dose-response data (relative enzyme activity), Fig. 6 + S. Fig. 10",HDAC8; Inhibitor conc [M] -5,6.862 and 6.863
same,"HDAC8 dose-response data (relative enzyme activity), Fig. 6 + S. Fig. 10",HDAC8; Inhibitor conc [M] -5.69897,19.3274 and 19.565
same,"HDAC8 dose-response data (relative enzyme activity), Fig. 6 + S. Fig. 10",HDAC8; Inhibitor conc [M] -6.39794,44.2904 and 45.2063
same,EC50,HDAC3/NCoR2 [2],2.82 nM
same,residual enzymatic activity relative to control wells,HDAC6; log[inhibitor(M)] -4.30103,2.583 and 1.686
same,residual enzymatic activity relative to control wells,HDAC6; log[inhibitor(M)] -5,3.305 and 1.741
same,residual enzymatic activity relative to control wells,HDAC6; log[inhibitor(M)] -5.69897,5.202 and 4.016
same,residual enzymatic activity relative to control wells,HDAC6; log[inhibitor(M)] -6.39794,10.5662 and 11.8653
same,residual enzymatic activity relative to control wells,HDAC6; log[inhibitor(M)] -7.09691,30.8137 and 34.4652
same,residual enzymatic activity relative to control wells,HDAC6; log[inhibitor(M)] -7.79588,67.8407 and 69.7758
same,residual enzymatic activity relative to control wells,HDAC6; log[inhibitor(M)] -8.49485,85.433 and 85.1351
same,residual enzymatic activity relative to control wells,HDAC6; log[inhibitor(M)] -9.19382,83.1934 and 87.9013
same,residual enzymatic activity relative to control wells,HDAC6; log[inhibitor(M)] -9.89279,78.0457 and 86.7533
same,residual enzymatic activity relative to control wells,HDAC6; log[inhibitor(M)] -10.585,79.87 and 88.4822
